Marks after values point to notes of the source that are not given here.
Tests used:
[1] = system: Puccinia recondita f. sp. tritici; assay: Test G: wheat leaf rust, spray after inoculation (curative) on wheat seedlings, visual disease rating; assay type: in vivo; details: 100 = 100% disease control; for Test G rating (% disease control): spray after inoculation, rating without asterisk; for Test G rating (disease control) / pest or weed control at 200 µg/mL: sprayed after inoculation, 0 = no disease control
Source text: (§1) A hyphen (-) indicates no test results.

[2] = system: Puccinia recondita f. sp. tritici; assay: Test H: wheat leaf rust, preventive spray on wheat seedlings, visual disease rating; details: 100 = 100% disease control; for Test H rating (% disease control) / Test H rating (disease control): wheat leaf rust; for Test H rating (% disease control): preventive spray, rating without asterisk; for Test H rating (disease control): sprayed the day before inoculation; for Test H rating (disease control) / pest or weed control at 200 µg/mL: 0 = no disease control; for pest or weed control at 200 µg/mL: read-out: Test H rating (disease control), wheat leaf rust, sprayed the day before inoculation
Method: (§2) General protocol for preparing test suspensions for Tests A-I: the test compounds were first dissolved in acetone in an amount equal to 3% of the final volume and then suspended at the desired concentration (in ppm) in acetone and purified water (50/50 mix by volume) containing 250 ppm of the surfactant Trem® 014 (polyhydric alcohol esters). The resulting test suspensions were then used in Tests A-I. Each test was conducted in triplicate, and the results were averaged. Spraying a 200 ppm test suspension to the point of run-off on the test plants was the equivalent of a rate of about 800 g/ha. Unless otherwise indicated, the rating values indicate a 200 ppm test suspension was used. (An asterisk “*” next to the rating value indicates a 40 ppm test suspension was used.)
The test suspension was sprayed to the point of run-off on wheat seedlings. The following day the seedlings were inoculated with a spore suspension of Puccinia recondita f. sp. tritici (the causal agent of wheat leaf rust) and incubated in a saturated atmosphere at 20° C. for 24 h, and then moved to a growth chamber at 20° C. for 6 days, after which time visual disease ratings were made.

Septoria nodorum = assay: Test E: Septoria glume blotch, preventive spray on wheat seedlings, visual disease rating; details: 100 = 100% disease control; for Test E rating (% disease control): Septoria glume blotch on wheat, preventive spray, rating without asterisk; for Test E rating (disease control): Septoria glume blotch; for Test E rating (disease control) / pest or weed control at 200 µg/mL: 0 = no disease control relative to the controls; for pest or weed control at 200 µg/mL: Parastagonospora nodorum, in Triticum aestivum, read-out: Test E rating (disease control), Septoria glume blotch
[3] = system: Blumeria graminis f. sp. tritici; assay: Test I: wheat powdery mildew, preventive spray on wheat seedlings, visual disease rating; details: 100 = 100% disease control; for Test I rating (% disease control) / Test I rating (disease control): wheat powdery mildew; for Test I rating (% disease control): preventive spray, rating without asterisk; for Test I rating (disease control) / pest or weed control at 200 µg/mL: 0 = no disease control relative to the controls; for pest or weed control at 200 µg/mL: Blumeria graminis, in Triticum aestivum, read-out: Test I rating (disease control), wheat powdery mildew
Method: as §2
The test suspension was sprayed to the point of run-off on wheat seedlings. The following day the seedlings were inoculated with a spore dust of Blumeria graminis f. sp. tritici (also known as Erysiphe graminis f. sp. tritici, the causal agent of wheat powdery mildew) and incubated in a growth chamber at 20° C. for 8 days, after which time visual disease ratings were made.

Botrytis cinerea = assay: Test A: tomato Botrytis, preventive spray on tomato seedlings, visual disease rating; details: 100 = 100% disease control; for Test A rating (% disease control) / Test A rating (disease control): tomato Botrytis; for Test A rating (% disease control): preventive spray, 0 = no control relative to controls, rating without asterisk; for Test A rating (disease control) / pest or weed control at 200 µg/mL: 0 = no disease control relative to the controls; for pest or weed control at 200 µg/mL: Botrytis cinerea, in Solanum lycopersicum, read-out: Test A rating (disease control), tomato Botrytis
Septoria tritici = assay: Test F: wheat leaf blotch, preventive spray on wheat seedlings, visual disease rating; assay type: in vivo; design: Test F rating (disease control), value marked *: concentration or dose not given beside the values; details: for Test F rating (% disease control): preventive spray, rating without asterisk; for Test F rating (% disease control) / Test F rating (disease control) / pest or weed control at 200 µg/mL: 100 = 100% disease control; for Test F rating (disease control) / pest or weed control at 200 µg/mL: 0 = no disease control relative to the controls; for pest or weed control at 200 µg/mL: Zymoseptoria tritici
Source text: as §1

Alternaria solani = assay: Test B: tomato early blight, preventive spray on tomato seedlings, visual disease rating; details: for Test B rating (% disease control) / Test B rating (disease control): tomato early blight, 100 = 100% disease control; for Test B rating (% disease control): preventive spray, rating without asterisk; for Test B rating (disease control): 0 = no disease control relative to the controls; for pest or weed control at 200 µg/mL: Alternaria solani, in Solanum lycopersicum, read-out: Test B rating (disease control)
Method: as §2
The test suspension was sprayed to the point of run-off on tomato seedlings. The following day the seedlings were inoculated with a spore suspension of Alternaria solani (the causal agent of tomato early blight) and incubated in a saturated atmosphere at 27° C. for 48 h, and then moved to a growth chamber at 20° C. for 5 days, after which time visual disease ratings were made.

Compound	Test G rating (disease control) [1] [%]	Test H rating (disease control) [2] [%]	Test E rating (disease control) (Septoria nodorum) [%]	Test I rating (disease control) [3] [%]	Test A rating (disease control) (Botrytis cinerea) [%]	Test F rating (disease control) (Septoria tritici) [%]	Test B rating (disease control) (Alternaria solani) [%]	pest or weed control at 200 µg/mL [1] [%]	pest or weed control at 200 µg/mL [2] [%]	pest or weed control at 200 µg/mL (Septoria nodorum) [%]	pest or weed control at 200 µg/mL [3] [%]	pest or weed control at 200 µg/mL (Botrytis cinerea) [%]	pest or weed control at 200 µg/mL (Alternaria solani) [%]	also measured
Cc1nn(C)c(Nc2c(F)cc(I)cc2F)c1-c1ccc(F)cc1Br [compound 218]	–	–	–	–	–	–	–	–	–	–	–	–	–	Test G rating (% disease control) [1]: 0%; Test H rating (% disease control) [2]: 99%; Test E rating (% disease control) (Septoria nodorum): 86%; Test I rating (% disease control) [3]: 99%; Test A rating (% disease control) (Botrytis cinerea): 100%; Test F rating (% disease control) (Septoria tritici): 100%; Test B rating (% disease control) (Alternaria solani): 68%
Cc1nn(C)c(Nc2c(Cl)cc(Br)cc2Cl)c1-c1ccc(F)cc1Cl [compound 164]	99	100	0	99	99	100	0	–	–	–	–	–	–	–
COc1ccc(-c2c(C)nn(C)c2Nc2c(F)cc(Cl)cc2Cl)c(Cl)c1 [compound 201]	–	–	–	–	–	–	–	–	–	–	–	–	–	Test G rating (% disease control) [1]: 98%; Test H rating (% disease control) [2]: 100%; Test E rating (% disease control) (Septoria nodorum): 99%; Test I rating (% disease control) [3]: 97%; Test A rating (% disease control) (Botrytis cinerea): 100%; Test F rating (% disease control) (Septoria tritici): 100%; Test B rating (% disease control) (Alternaria solani): 100%
Cc1nn(C)c(Nc2ccc(Cl)cc2Cl)c1-c1ccc(F)cc1F [compound 67]	0	97	0	100	100	100	64	–	–	–	–	–	–	–
Cc1nn(C)c(Oc2c(F)cc(C#N)cc2F)c1-c1ccccc1F [compound 91]	0	99	94	99	99	100	99	–	–	–	–	–	–	–
Cc1nn(C)c(Oc2c(F)cc(C#N)cc2F)c1-c1ccccc1Br [compound 76]	0	99	99	99	100	99	97	–	–	–	–	–	–	–
Cc1nn(C)c(Nc2ccc(F)cc2Cl)c1-c1c(Cl)cccc1Cl [compound 109]	0	97	0	100	100	100	0	–	–	–	–	–	–	–
Cc1nn(C)c(Nc2ccc(F)cc2Br)c1-c1ccc(F)cc1F [Compound 118, N-(2-bromo-4-fluorophenyl)-4-(2,4-difluorophenyl)-1,3-dimethyl-1H-pyrazol-5-amine]	–	–	–	–	–	–	–	75	97	69	100	100	93	pest or weed control at 200 µg/mL (Septoria tritici): 100%
Cc1nn(C)c(Nc2c(F)cc(Br)cc2F)c1-c1ccc(F)cc1F [Compound 133, N-(4-bromo-2,6-difluorophenyl)-4-(2,4-difluorophenyl)-1,3-dimethyl-1H-pyrazol-5-amine]	–	–	–	–	–	–	–	0	99	88	100	99	97	pest or weed control at 200 µg/mL (Septoria tritici): 100%
COc1ccc(-c2c(C)nn(C)c2Nc2c(F)cc(F)cc2Cl)c(Cl)c1 [compound 203]	–	–	–	–	–	–	–	–	–	–	–	–	–	Test G rating (% disease control) [1]: 79%; Test H rating (% disease control) [2]: 100%; Test E rating (% disease control) (Septoria nodorum): 73%; Test I rating (% disease control) [3]: 98%; Test A rating (% disease control) (Botrytis cinerea): 95%; Test F rating (% disease control) (Septoria tritici): 100%; Test B rating (% disease control) (Alternaria solani): 100%
Cc1nn(C)c(Oc2ccc(C#N)cc2F)c1-c1ccc(F)cc1Br [Compound 79, 4-[[4-(2-bromo-4-fluorophenyl)-1,3-dimethyl-1H-pyrazol-5-yl]oxy]-3-fluorobenzonitrile]	–	–	–	–	–	–	–	28	100	100	100	99	99	Test F rating (disease control), value marked * (Septoria tritici; rating marked with asterisk (*), other test condition, not explained in the text shown): 100* %
Cc1nn(C)c(Nc2ccc(Cl)cc2F)c1-c1ccc(F)cc1F [compound 160]	0	99	0	100	100	100	99	–	–	–	–	–	–	–
COc1cc(F)c(-c2c(C)nn(C)c2Nc2c(F)cc(F)cc2F)c(F)c1 [Compound 7, 4-(2,6-difluoro-4-methoxyphenyl)-1,3-dimethyl-N-(2,4,6-trifluorophenyl)-1H-pyrazol-5-amine]	–	–	–	–	–	–	–	9	97	0	100	98	100	pest or weed control at 200 µg/mL (Septoria tritici): 94%
COc1cc(F)c(-c2c(C)nn(C)c2Oc2c(F)cc(Cl)cc2F)c(F)c1 [Compound 15]	82	100	89	100	98	98	100	–	–	–	–	–	–	–
Cc1nn(C)c(Nc2c(F)cc(Cl)cc2Cl)c1-c1ccc(Cl)cc1F [compound 231]	–	–	–	–	–	–	–	–	–	–	–	–	–	Test G rating (% disease control) [1]: 9%; Test H rating (% disease control) [2]: 94%; Test E rating (% disease control) (Septoria nodorum): 0%; Test I rating (% disease control) [3]: 99%; Test A rating (% disease control) (Botrytis cinerea): 33%; Test F rating (% disease control) (Septoria tritici): 100%; Test B rating (% disease control) (Alternaria solani): 58%
Cc1nn(C)c(Nc2c(F)cc(F)cc2F)c1-c1ccccc1Br [compound 70]	0	99	73	100	99	100	26	–	–	–	–	–	–	–
Cc1nn(C)c(Nc2c(F)cc(F)cc2Cl)c1-c1c(F)cccc1Cl [compound 87]	0	100	87	100	100	100	93	–	–	–	–	–	–	–
Cc1nn(C)c(C(O)c2c(F)cc(Cl)cc2F)c1-c1ccc(F)cc1Cl (stereo not drawn) [Compound 148, α-(4-chloro-2,6-difluorophenyl)-4-(2-chloro-4-fluorophenyl)-1,3-dimethyl-1H-pyrazole-5-methanol]	–	–	–	–	–	–	–	0	100	60	64	100	0	pest or weed control at 200 µg/mL (Septoria tritici): 100%
Cc1nn(C)c(Nc2c(F)cc(F)cc2F)c1-c1c(F)cccc1F [compound 89]	9	99	82	100	100	100	99	–	–	–	–	–	–	–
Cc1nn(C)c(C(O)c2ccc(F)cc2Cl)c1-c1ccc(F)cc1Cl (stereo not drawn) [Compound 123, α,4-bis(2-chloro-4-fluorophenyl)-1,3-dimethyl-1H-pyrazole-5-methanol]	–	–	–	–	–	–	–	6	100	60	95	100	86	pest or weed control at 200 µg/mL (Septoria tritici): 100%

Reference: US20170150719A1, “FUNGICIDAL PYRAZOLES AND THEIR MIXTURES” (E I DU PONT DE NEMOURS AND COMPANY, priority 2010, published 2017)
